Laboratory results published in patent US9738932B2, “Biomarkers for cardiovascular side-effects induced by cox-2 inhibitory compounds” (FIRALIS SAS, priority 2005, dated 2017).

Tested on: mRNA expression in cardiovascular tissues
Assay: Affymetrix GeneChip mRNA expression profiling of monkey tissues (iliac vein, pulmonary vein, aorta, carotid artery, heart) after two-week oral-gavage treatment
[1] = iliac vein, Vioxx animal A60055

**Q.** What does the source list for CS(=O)(=O)c1ccc(C2=C(c3ccccc3)C(=O)OC2)cc1 [Vioxx®, rofecoxib]?
**A.** expression of MHC class I classical and non-classical molecules, MHC class II molecules and their receptors (16 tissues, ANOVA p<0.05, 50 mg/kg/day, two weeks): significant increases; ACE (209749_s_at) mRNA expression, fold change vs control [1]: 1.3 fold; B2M (216231_s_at) mRNA expression, fold change vs control [1]: 1.4 fold; BCL6 (215990_s_at) mRNA expression, fold change vs control [1]: 1.3 fold; BTN2A2 (205298_s_at) mRNA expression, fold change vs control [1]: 1.4 fold; CCR1 (205098_at) mRNA expression, fold change vs control [1]: 1.4 fold; CD2 (205831_at) mRNA expression, fold change vs control [1]: 1.4 fold; CD48 (204118_at) mRNA expression, fold change vs control [1]: 1.5 fold; CD53 (203416_at) mRNA expression, fold change vs control [1]: 1.5 fold; CDC2 (210559_s_at) mRNA expression, fold change vs control [1]: 1.5 fold; CYBB (203922_s_at) mRNA expression, fold change vs control [1]: 1.4 fold; EMP3 (203729_at) mRNA expression, fold change vs control [1]: 1.4 fold; FCER1G (204232_at) mRNA expression, fold change vs control [1]: 1.4 fold; FCGR2A (203561_at) mRNA expression, fold change vs control [1]: 1.5 fold; FCGRT (218831_s_at) mRNA expression, fold change vs control [1]: 1.4 fold; FKBP11 (219117_s_at) mRNA expression, fold change vs control [1]: 1.4 fold; FKBP11 (219118_at) mRNA expression, fold change vs control [1]: 1.5 fold; GP6 (220336_s_at) mRNA expression, fold change vs control [1]: 1.4 fold; HCLS1 (202957_at) mRNA expression, fold change vs control [1]: 1.3 fold; HEM1 (209734_at) mRNA expression, fold change vs control [1]: 1.5 fold; HLA-A (210514_x_at) mRNA expression, fold change vs control [1]: 1.3 fold; HLA-A (213932_x_at) mRNA expression, fold change vs control [1]: 1.5 fold; HLA-C (211799_x_at) mRNA expression, fold change vs control [1]: 1.4 fold; HLA-E (200904_at) mRNA expression, fold change vs control [1]: 1.4 fold; HLA-F (221978_at) mRNA expression, fold change vs control [1]: 1.3 fold; ICAM1 (202637_s_at) mRNA expression, fold change vs control [1]: 1.3 fold; IL13RA1 (210904_s_at) mRNA expression, fold change vs control [1]: 1.2 fold; PIK3CD (203879_at) mRNA expression, fold change vs control [1]: 1.2 fold; PRKCBP1 (209048_s_at) mRNA expression, fold change vs control [1]: 1.3 fold; PRKCBP1 (209049_s_at) mRNA expression, fold change vs control [1]: 1.5 fold; PTPN7 (204852_s_at) mRNA expression, fold change vs control [1]: 1.4 fold; SIGIRR (52940_at) mRNA expression, fold change vs control [1]: 1.2 fold; STAT1 (200887_s_at) mRNA expression, fold change vs control [1]: 1.5 fold; STAT1 (AFFX-HUMISGF3A/M97935_3_at) mRNA expression, fold change vs control [1]: 1.4 fold; STAT3 (208992_s_at) mRNA expression, fold change vs control [1]: 1.5 fold; TCIRG1 (204158_s_at) mRNA expression, fold change vs control [1]: 1.2 fold; THY1 (213869_x_at) mRNA expression, fold change vs control [1]: 1.3 fold; TMPO (209753_s_at) mRNA expression, fold change vs control [1]: 1.5 fold; TMSB10 (217733_s_at) mRNA expression, fold change vs control [1]: 1.4 fold; TNFRSF21 (218856_at) mRNA expression, fold change vs control [1]: 1.5 fold; TRB@ (210915_x_at) mRNA expression, fold change vs control [1]: 1.3 fold; TRB@ (213193_x_at) mRNA expression, fold change vs control [1]: 1.5 fold; 209813_x_at fold change vs control (iliac vein, animal A60055): 2.4 fold; AIF1 (209901_x_at) fold change vs control (iliac vein, animal A60055): 3.0 fold; AIF1 (213095_x_at) fold change vs control (iliac vein, animal A60055): 3.2 fold; B2M (201891_s_at) fold change vs control (iliac vein, animal A60055): 3.0 fold; BCL3 (204908_s_at) fold change vs control (iliac vein, animal A60055): 1.7 fold; BTN3A1 (207485_x_at) fold change vs control (iliac vein, animal A60055): 4.0 fold; BTN3A3 (38241_at) fold change vs control (iliac vein, animal A60055): 2.3 fold; BTN3A3 (204820_s_at) fold change vs control (iliac vein, animal A60055): 4.1 fold; BTN3A3 (204821_at) fold change vs control (iliac vein, animal A60055): 3.3 fold; C1QA (218232_at) fold change vs control (iliac vein, animal A60055): 1.7 fold; C1QB (202953_at) fold change vs control (iliac vein, animal A60055): 1.8 fold; C1R (212067_s_at) fold change vs control (iliac vein, animal A60055): 2.0 fold; C1S (208747_s_at) fold change vs control (iliac vein, animal A60055): 3.6 fold; C2 (203052_at) fold change vs control (iliac vein, animal A60055): 3.3 fold; C4A (208451_s_at) fold change vs control (iliac vein, animal A60055): 3.8 fold; CASP1 (209970_x_at) fold change vs control (iliac vein, animal A60055): 2.3 fold; CASP1 (211367_s_at) fold change vs control (iliac vein, animal A60055): 2.7 fold; CCL2 (216598_s_at) fold change vs control (iliac vein, animal A60055): 150.9 fold; CCL3 (205114_s_at) fold change vs control (iliac vein, animal A60055): 3.8 fold; CCL5 (1405_i_at) fold change vs control (iliac vein, animal A60055): 2.8 fold; CCL8 (214038_at) fold change vs control (iliac vein, animal A60055): 8.8 fold; CCL18 (209924_at) fold change vs control (iliac vein, animal A60055): 2.0 fold; CCL19 (210072_at) fold change vs control (iliac vein, animal A60055): 3.0 fold; CCNB2 (202705_at) fold change vs control (iliac vein, animal A60055): 2.9 fold; CD3D (213539_at) fold change vs control (iliac vein, animal A60055): 1.9 fold; CD8A (205758_at) fold change vs control (iliac vein, animal A60055): 2.3 fold; CD14 (201743_at) fold change vs control (iliac vein, animal A60055): 2.0 fold; CD74 (209619_at) fold change vs control (iliac vein, animal A60055): 2.8 fold; CLU (208791_at) fold change vs control (iliac vein, animal A60055): 2.2 fold; CMAH (210571_s_at) fold change vs control (iliac vein, animal A60055): 2.0 fold; CTSC (201487_at) fold change vs control (iliac vein, animal A60055): 2.1 fold; CTSK (202450_s_at) fold change vs control (iliac vein, animal A60055): 1.5 fold; CTSS (202902_s_at) fold change vs control (iliac vein, animal A60055): 1.6 fold; CX3CR1 (205898_at) fold change vs control (iliac vein, animal A60055): 3.6 fold; CXCL9 (203915_at) fold change vs control (iliac vein, animal A60055): 9.3 fold; CXCL10 (204533_at) fold change vs control (iliac vein, animal A60055): 19.8 fold; CXCL11 (210163_at) fold change vs control (iliac vein, animal A60055): 9.7 fold; CXCL11 (211122_s_at) fold change vs control (iliac vein, animal A60055): 6.6 fold; CXCL12 (209687_at) fold change vs control (iliac vein, animal A60055): 1.6 fold; CYBA (203028_s_at) fold change vs control (iliac vein, animal A60055): 1.8 fold; CYBB (203923_s_at) fold change vs control (iliac vein, animal A60055): 1.6 fold; CYP1B1 (202436_s_at) fold change vs control (iliac vein, animal A60055): 2.6 fold; CYP3A5 (214234_s_at) fold change vs control (iliac vein, animal A60055): 3.9 fold; CYP11B1 (214630_at) fold change vs control (iliac vein, animal A60055): 2.5 fold; DUSP6 (208893_s_at) fold change vs control (iliac vein, animal A60055): 3.0 fold; ECGF1 (204858_s_at) fold change vs control (iliac vein, animal A60055): 3.3 fold; ECM1 (209365_s_at) fold change vs control (iliac vein, animal A60055): 2.0 fold; F2RL1 (206429_at) fold change vs control (iliac vein, animal A60055): 2.0 fold; F13A1 (203305_at) fold change vs control (iliac vein, animal A60055): 1.8 fold; FCGR1A (214511_x_at) fold change vs control (iliac vein, animal A60055): 2.0 fold; FCGR3A (204006_s_at) fold change vs control (iliac vein, animal A60055): 2.5 fold; G1P2 (205483_s_at) fold change vs control (iliac vein, animal A60055): 4.5 fold; GZMB (210164_at) fold change vs control (iliac vein, animal A60055): 3.2 fold; HCA127 (220040_x_at) fold change vs control (iliac vein, animal A60055): 2.0 fold; HCK (208018_s_at) fold change vs control (iliac vein, animal A60055): 1.8 fold; HFE (210864_x_at) fold change vs control (iliac vein, animal A60055): 1.8 fold
